Experimental data taken from patent US10907212B2, “Inhibitors of cell adhesion” (Regents of the University of Minnesota, priority 2016, dated 2021).
Entries after “also recorded” stand apart in the source; their conditions may differ. Where no end group is shown, it is not given here.

Key:
[1] = system: nectin 4 protein on NIH:OVCAR-5 cells; test: Effect of peptides on anti-Nectin-4 antibody binding to cells as determined by flow cytometry; assay type: cell-based, human; conditions: for IgG MFI: IgG control primary antibody; for nectin-4 antibody binding compared to untreated control cells (in words): flow cytometry; for Flow binding: summary table, Nectin-4 antibody binding relative to control = 100
Description: Confluent monolayers of cells were detached from 75 cm^2 tissue culture flasks using Accutase cell dissociation buffer (Innovative Cell Technologies, San Diego, Calif.), washed, and labeled with mouse IgG or mAbs against Nectin-4 or Nectin-1 (2.5 μg/10^6 cells) in Flow Buffer [phosphate buffered saline (PBS) containing 2.5% newborn calf serum and 0.02% sodium azide] for 30 min at 4° C.. Cells were washed and incubated with goat anti-mouse IgG F(ab′)2 (Jackson ImmunoResearch, West Grove, Pa.), then washed again and incubated with streptavidin-allophycocyanin conjugate (Jackson ImmunoResearch, West Grove, Pa.) for 30 min each. Cells were washed and fixed in Flow Buffer containing 1% formaldehyde and analyzed in the University of Minnesota Flow Cytometry Resource with a BD Accuri™ C6 flow cytometer (BD Biosciences, San Jose, Calif.) using the Accuri™ software.
Briefly, NIH:OVCAR-5 cells that natively express a moderate amount of nectin 4 protein were incubated for 30 minutes in 150 μg/mL of soluble peptide in DMSO. After incubation, the cells were washed, and then triple antibody stained using mouse anti-nectin 4 (or IgG control) primary antibody, biotinylated goat anti-mouse secondary antibody, and streptavidin APC tertiary antibody. Finally, utilizing the University of Minnesota flow core's Accuri C6 flow cytometer, the relative antibody binding affinity for control and peptide-treated samples was quantitated and compared. Data was collected for each of the 57 peptides generated.

[2] = system: ovarian cancer cell aggregation and spheroid formation; test: Spheroid assay for peptides (visual scale +1 to +5); assay type: cell-based, human; conditions: for Spheroid-24: 24 hrs, Control = 2; for Spheroid-24 / Spheroid-48: visual scale of +1 to +5; for Spheroid-48: 48 hrs, Control = 4
Description: Spheroids were formed from the NIH:OVCAR5 cell lines described above using the liquid overlay method. One milliliter of a single cell suspension was seeded at a concentration of 50,000 cells/ml in OptiMEM® media, into 24-well tissue culture plates coated with 0.5% Seakem agarose (in complete RPMI-1640). Plates were incubated at 37° C. in a humidified incubator with 5% CO2. At various time points up to 5 days, the plates were removed from the incubator and the spheroids were photographed with a Nikon CoolPix digital camera mounted on an Olympus CK2 inverted microscope with a 4× objective. The size of the spheroids was determined using the measure tool in Adobe Photoshop. The largest spheroids were quantified (20-90 spheroids/well), in a minimum of 8 wells, for a total of >300 spheroids per cell type.
The clinical relevance is that by blocking the formation of spheroids, the cells will be more sensitive to chemotherapy (which targets the single cells that proliferate more rapidly than spheroids).
The spheroid assay for peptides 1-30 were scored using a visual scale of +1 to +5. The controls were scored at +2 (24 hrs) and +4 (48 hrs). […] It may be harder to visually assess the size at 24 hours, since the spheroids are relatively small, but and perhaps some of the peptides are affecting cell division, and that is why the spheroids are smaller than the controls at 48 hours, but not 24 hrs (this can be easily assayed with an MTT assay).

[3] = Run One, 150 μg/mL peptide, 30 minutes, Control 1 = 15,015
[4] = Run One, 150 μg/mL peptide, 30 minutes, Control 1 = 1,670
[5] = Run One, antibody binding relative to Control 1 = 100.00
[6] = Run Four, 150 μg/mL peptide, 30 minutes, Control 4 = 9,631.58
[7] = Run Four, Control 4 = 9.387504873
[8] = Run Four, antibody binding relative to Control 4 = 100
[9] = Run Two, 150 μg/mL peptide, 30 minutes, Control 2 = 49,491
[10] = Run Two, antibody binding relative to Control 2 = 100.00

LVPSRSMNGQPLTC-NH2 (listed as Homo sapiens) [Peptide 16]
N4 MFI [1, 3]: 12,161 | IgG MFI [1, 4]: 2,432 | N4 MFI/IgG MFI ([1]; Run One, Control 1 = 8.99): 5.00 | nectin-4 antibody binding, percent of control [1, 5]: 72.90 | Spheroid-24 [2]: 1 | Spheroid-48 [2]: 1

LWHIGREGAMLKCL-NH2 (listed as Homo sapiens) [Peptide 20]
N4 MFI [1, 3]: 17,636 | IgG MFI [1, 4]: 1,890 | N4 MFI/IgG MFI ([1]; Run One, Control 1 = 8.99): 9.33 | nectin-4 antibody binding, percent of control [1, 5]: 117.99 | nectin-4 antibody binding compared to untreated control cells (in words) ([1]; 150 μg/mL peptide): increased binding of nectin-4 antibody | Flow binding [1]: 118% | Spheroid-48 [2]: 2

NPNGTVTVISRYRLV-NH2 (listed as Homo sapiens) [Peptide 44]
N4 MFI [1, 6]: 7,802.22 | N4 MFI/IgG MFI [1, 7]: 8.481 | IgG MFI ([1]; Run Four, Control 4 = 1,026): 920 | nectin-4 antibody binding, percent of control [1, 8]: 79.97 | Spheroid-24 [2]: 3

PEVTIEGFDGNW-NH2 (listed as Homo sapiens) [Peptide 48]
N4 MFI [1, 6]: 10,595.37 | N4 MFI/IgG MFI [1, 7]: 9.911 | IgG MFI ([1]; Run Four, Control 4 = 1,026): 1069 | nectin-4 antibody binding, percent of control [1, 8]: 110.7 | Spheroid-24 [2]: 1 | Spheroid-48 [2]: 2

PPPRNPLDGSVLLR-NH2 (listed as Homo sapiens) [Peptide 7]
N4 MFI [1, 3]: 18,342 | IgG MFI [1, 4]: 1,255 | N4 MFI/IgG MFI ([1]; Run One, Control 1 = 8.99): 14.62 | nectin-4 antibody binding, percent of control [1, 5]: 128.04 | nectin-4 antibody binding compared to untreated control cells (in words) ([1]; 150 μg/mL peptide): increased the binding of the Nectin-4 antibody to cells | Flow binding [1]: 128% | Spheroid-24 [2]: 3 | spheroid size relative to the control (in words) ([2]; at 24 hrs): slightly larger spheroid size

QARLRLRVLVPPLP-NH2 (listed as Homo sapiens) [Peptide 10]
N4 MFI [1, 3]: 4,119 | IgG MFI [1, 4]: 2,452 | N4 MFI/IgG MFI ([1]; Run One, Control 1 = 8.99): 1.68 | nectin-4 antibody binding, percent of control [1, 5]: 12.49 | nectin-4 antibody binding compared to untreated control cells (in words) ([1]; 150 μg/mL peptide): reduction in nectin-4 antibody binding; also recorded: reduced antibody binding | Flow binding [1]: 12.50% | spheroid size (in words) [2]: reduced spheroid size | Spheroid-24 [2]: 1 | Spheroid-48 [2]: 2

RLKGEAEYQEIRNP-NH2 (listed as Homo sapiens) [Peptide 43]
N4 MFI [1, 6]: 9,677.93 | N4 MFI/IgG MFI [1, 7]: 7.399 | IgG MFI ([1]; Run Four, Control 4 = 1,026): 1308 | nectin-4 antibody binding, percent of control [1, 8]: 97.26 | Spheroid-24 [2]: 5

RPSFTDGTIRLS-NH2 (listed as Homo sapiens) [Peptide 36]
N4 MFI ([1]; Run Three, 150 μg/mL peptide, 30 minutes, Control 3 = 13,070.20): 13,633.18 | N4 MFI/IgG MFI ([1]; Run Three, Control 3 = 9.83): 7.80 | IgG MFI ([1]; Run Three, Control 3 = 1330): 1748 | nectin-4 antibody binding, percent of control ([1]; Run Three, antibody binding relative to Control 3 = 100.00): 101.23 | Spheroid-48 [2]: 3

RVDGDTLGFPPLTT-NH2 (listed as Homo sapiens) [Peptide 23]
N4 MFI [1, 9]: 18,902 | N4 MFI/IgG MFI ([1]; Run Two, Control 2 = 9.46): 5.66 | IgG MFI ([1]; Run Two, Control 2 = 5,233): 3,342 | nectin-4 antibody binding, percent of control [1, 10]: 35.16 | nectin-4 antibody binding compared to untreated control cells (in words) ([1]; 150 μg/mL peptide): reduction in nectin-4 antibody binding | Flow binding [1]: 35% | Spheroid-24 [2]: 1 | Spheroid-48 [2]: 2

SGKQVDLVSAS-NH2 (listed as Homo sapiens) [Peptide 27]
N4 MFI [1, 9]: 22,824 | N4 MFI/IgG MFI ([1]; Run Two, Control 2 = 9.46): 5.57 | IgG MFI ([1]; Run Two, Control 2 = 5,233): 4,099 | nectin-4 antibody binding, percent of control [1, 10]: 42.31 | nectin-4 antibody binding compared to untreated control cells (in words) ([1]; 150 μg/mL peptide): reduction in nectin-4 antibody binding | Flow binding [1]: 42% | Spheroid-24 [2]: 1 | Spheroid-48 [2]: 2

SNEFSSRDSQVTVD-NH2 (listed as Homo sapiens) [Peptide 25]
N4 MFI [1, 9]: 7,756 | N4 MFI/IgG MFI ([1]; Run Two, Control 2 = 9.46): 2.16 | IgG MFI ([1]; Run Two, Control 2 = 5,233): 3,584 | nectin-4 antibody binding, percent of control [1, 10]: 9.43 | nectin-4 antibody binding compared to untreated control cells (in words) ([1]; 150 μg/mL peptide): reduction in nectin-4 antibody binding | Flow binding [1]: 9.40% | Spheroid-24 [2]: 2
